Values of other authors as cited in patent US4361703A, “Para-amino(or nitro)phenyl N-acetylaminothioalkanoates” (priority 1977, dated 1982).

Assays:
[1] = test system: lethal and hepatotoxic effects of paracetamol overdosage; settings: cited from earlier work
[2] = test system: death and liver injury; settings: cited from earlier work
[3] = test system: mice; settings: mouse, in vivo; cited from earlier work

| SMILES | effect of methionine combined with paracetamol [1] | effect of methionine added to oral paracetamol dose [2] | 48 hour survival [3] |
| --- | --- | --- | --- |
| CSCC[C@H](N)C(=O)O [methionine] | greatly reducing the lethal and hepatotoxic effects of paracetamol overdosage | protects against death and liver injury |  |
| CC(=O)N[C@@H](CS)C(=O)O [N-acetylcysteine] |  |  | significantly improved 48 hour survival in mice |
